Test results published in patent EP0908457B1, “3-(1,2-benzisothiazol- and isoxazol-5-Y1)-2,4(1H,3H)-pyrimidinedione or thione and 3-(1,2-benzisothiazol- and isoxazol-5-y1)-4(3H)-pyrimidinone or thione herbicidal agents” (BASF AKTIENGESELLSCHAFT, priority 1997, dated 1999).

How the values were obtained:
Assay type in all cases: in vivo
[1] = tested on: Monochoria vaginalis, Presl.; assay: Preemergence weed control under flooded paddy conditions, MOOVA (Monochoria); conditions: flooded paddy; for MOOVA: preemergence weeds, herbicidal effect rating 0-9, three to four weeks after treatment; for herbicidal effect rating, MOOVA / MOOVA herbicidal rating: preemergence, rated three to four weeks after treatment
Sagittaria pygmaea, L. = assay: Preemergence weed control under flooded paddy conditions, SAGPY (Arrowhead (Pygmaea)); conditions: flooded paddy; for SAGPY: preemergence weeds, herbicidal effect rating 0-9, three to four weeks after treatment; for herbicidal effect rating, SAGPY / SAGPY herbicidal rating: preemergence, rated three to four weeks after treatment
Cyperus iria = assay: Preemergence weed control under flooded paddy conditions, CYPIR (Rice Flatsedge); conditions: flooded paddy; for CYPIR: preemergence weeds, herbicidal effect rating 0-9, three to four weeks after treatment; for herbicidal effect rating, CYPIR / CYPIR herbicidal rating: preemergence, rated three to four weeks after treatment
[2] = tested on: Cyperus serotinus, Rottb.; assay: Preemergence weed control under flooded paddy conditions, CYPSE (Flatsedge); conditions: for herbicidal effect rating, CYPSE / CYPSE herbicidal rating: preemergence, rated three to four weeks after treatment
[3] = tested on: Echinochloa oryzoides (Ard.) Fritsch.; assay: Preemergence weed control under flooded paddy conditions, ECHORC (Watergrass (Calif.)); conditions: flooded paddy; for ECHORC: preemergence weeds, herbicidal effect rating 0-9, three to four weeks after treatment; for herbicidal effect rating, ECHORC / ECHORC herbicidal rating: preemergence, rated three to four weeks after treatment

## Cn1c(C(F)(F)F)cc(=O)n(-c2ccc3snc(C(C#N)=CC4CC4)c3c2)c1=O [Example 458, 1,2-Benzisothiazole-3-acetonitrile, alpha(cyclopropylmethylene)-5-[3,6-dihydro-3-methyl-2,6-dioxo-4-(trifluoromethyl)-1(2H)-pyrimidinyl]-, (E)- and (Z)-]
[1]; 0.0320 kg/ha
  MOOVA: 4.0
[1]; 0.0620 kg/ha
  MOOVA: 6.0
[1]; 0.1250 kg/ha
  MOOVA: 9.0
[1]; 0.2500 kg/ha
  MOOVA: 9.0
Sagittaria pygmaea, L.; 0.0320 kg/ha
  SAGPY: 2.0
Sagittaria pygmaea, L.; 0.0620 kg/ha
  SAGPY: 2.0
Sagittaria pygmaea, L.; 0.1250 kg/ha
  SAGPY: 6.0
Sagittaria pygmaea, L.; 0.2500 kg/ha
  SAGPY: 8.0
Cyperus iria; 0.0320 kg/ha
  CYPIR: 0.0
Cyperus iria; 0.0620 kg/ha
  CYPIR: 4.0
Cyperus iria; 0.1250 kg/ha
  CYPIR: 7.0
Cyperus iria; 0.2500 kg/ha
  CYPIR: 7.0
[2]; 0.0320 kg/ha, preemergence weeds, herbicidal effect rating 0-9, three to four weeks after treatment
  CYPSE: 2.0
[3]; 0.0320 kg/ha
  ECHORC: 5.0
[3]; 0.0620 kg/ha
  ECHORC: 6.0
[3]; 0.1250 kg/ha
  ECHORC: 7.0
[3]; 0.2500 kg/ha
  ECHORC: 8.0

## Cn1c(C(F)(F)F)cc(=O)n(-c2ccc3snc(COS(C)(=O)=O)c3c2)c1=O [Example 363, 2,4(1H,3H)-Pyrimidinedione, 3-[3-(hydroxymethyl)-1,2-benzisothiazol-5-yl]-1-methyl-6-(trifluoromethyl)-, methanesulfonate (ester)]
[1]; Rate 0.0320 kg/ha
  herbicidal effect rating, MOOVA: 9.0
[1]; Rate 0.0620 kg/ha
  herbicidal effect rating, MOOVA: 9.0
[1]; Rate 0.1250 kg/ha
  herbicidal effect rating, MOOVA: 9.0
[1]; Rate 0.2500 kg/ha
  herbicidal effect rating, MOOVA: 9.0
[1]; Rate 0.5000 kg/ha
  herbicidal effect rating, MOOVA: 9.0
Sagittaria pygmaea, L.; Rate 0.0320 kg/ha
  herbicidal effect rating, SAGPY: 3.0
Sagittaria pygmaea, L.; Rate 0.0620 kg/ha
  herbicidal effect rating, SAGPY: 5.0
Sagittaria pygmaea, L.; Rate 0.1250 kg/ha
  herbicidal effect rating, SAGPY: 7.0
Sagittaria pygmaea, L.; Rate 0.2500 kg/ha
  herbicidal effect rating, SAGPY: 9.0
Sagittaria pygmaea, L.; Rate 0.5000 kg/ha
  herbicidal effect rating, SAGPY: 9.0
Cyperus iria; Rate 0.0320 kg/ha
  herbicidal effect rating, CYPIR: 6.0
Cyperus iria; Rate 0.0620 kg/ha
  herbicidal effect rating, CYPIR: 7.0
Cyperus iria; Rate 0.1250 kg/ha
  herbicidal effect rating, CYPIR: 7.0
Cyperus iria; Rate 0.2500 kg/ha
  herbicidal effect rating, CYPIR: 7.0
Cyperus iria; Rate 0.5000 kg/ha
  herbicidal effect rating, CYPIR: 8.0
[2]; Rate 0.0320 kg/ha
  herbicidal effect rating, CYPSE: 0.0
[2]; Rate 0.0620 kg/ha
  herbicidal effect rating, CYPSE: 0.0
[2]; Rate 0.1250 kg/ha
  herbicidal effect rating, CYPSE: 5.0
[2]; Rate 0.2500 kg/ha
  herbicidal effect rating, CYPSE: 7.0
[2]; Rate 0.5000 kg/ha
  herbicidal effect rating, CYPSE: 7.0
[3]; Rate 0.0320 kg/ha
  herbicidal effect rating, ECHORC: 3.0
[3]; Rate 0.0620 kg/ha
  herbicidal effect rating, ECHORC: 4.0
[3]; Rate 0.1250 kg/ha
  herbicidal effect rating, ECHORC: 5.0
[3]; Rate 0.2500 kg/ha
  herbicidal effect rating, ECHORC: 6.0
[3]; Rate 0.5000 kg/ha
  herbicidal effect rating, ECHORC: 7.0

## CCC(C(=O)OCc1nsc2ccc(-n3c(=O)cc(C(F)(F)F)n(C)c3=O)cc12)c1ccccc1 (centres unmarked) [Example 473, 2,4(1H,3H)-Pyrimidinedione, 3-[3-(hydroxymethyl)-1,2-benzisothiazol-5-yl]-1-methyl-6-(trifluoromethyl)-, 2-phenylbutyrate (ester)]
[1]; 0.0320 kg/ha
  MOOVA herbicidal rating: 4.0
[1]; 0.0620 kg/ha
  MOOVA herbicidal rating: 6.0
[1]; 0.1250 kg/ha
  MOOVA herbicidal rating: 7.0
[1]; 0.2500 kg/ha
  MOOVA herbicidal rating: 7.0
Sagittaria pygmaea, L.; 0.0320 kg/ha
  SAGPY herbicidal rating: 0.0
Sagittaria pygmaea, L.; 0.0620 kg/ha
  SAGPY herbicidal rating: 0.0
Sagittaria pygmaea, L.; 0.1250 kg/ha
  SAGPY herbicidal rating: 2.0
Sagittaria pygmaea, L.; 0.2500 kg/ha
  SAGPY herbicidal rating: 3.0
Cyperus iria; 0.0320 kg/ha
  CYPIR herbicidal rating: 2.0
Cyperus iria; 0.0620 kg/ha
  CYPIR herbicidal rating: 4.0
Cyperus iria; 0.1250 kg/ha
  CYPIR herbicidal rating: 6.0
Cyperus iria; 0.2500 kg/ha
  CYPIR herbicidal rating: 8.0
[2]; 0.0320 kg/ha
  CYPSE herbicidal rating: 0.0
[2]; 0.0620 kg/ha
  CYPSE herbicidal rating: 0.0
[2]; 0.2500 kg/ha
  CYPSE herbicidal rating: 5.0
[3]; 0.0320 kg/ha
  ECHORC herbicidal rating: 1.0
[3]; 0.0620 kg/ha
  ECHORC herbicidal rating: 2.0
[3]; 0.1250 kg/ha
  ECHORC herbicidal rating: 2.0
[3]; 0.2500 kg/ha
  ECHORC herbicidal rating: 4.0

## Cn1c(C(F)(F)F)cc(=O)n(-c2ccc3snc(COC(=O)Cc4ccccc4Cl)c3c2)c1=O [Example 402, 2,4(1H,3H)-Pyrimidinedione, 3-[3-(hydroxymethyl)-1,2-benzisothiazol-5-yl]-1-methyl-6-(trifluoromethyl)-, (o-chlorophenyl)acetate (ester)]
[1]; Rate 0.0320 kg/ha
  herbicidal effect rating, MOOVA: 7.0
[1]; Rate 0.0620 kg/ha
  herbicidal effect rating, MOOVA: 7.0
[1]; Rate 0.1250 kg/ha
  herbicidal effect rating, MOOVA: 9.0
[1]; Rate 0.2500 kg/ha
  herbicidal effect rating, MOOVA: 9.0
Sagittaria pygmaea, L.; Rate 0.0320 kg/ha
  herbicidal effect rating, SAGPY: 0.0
Sagittaria pygmaea, L.; Rate 0.0620 kg/ha
  herbicidal effect rating, SAGPY: 0.0
Sagittaria pygmaea, L.; Rate 0.1250 kg/ha
  herbicidal effect rating, SAGPY: 0.0
Sagittaria pygmaea, L.; Rate 0.2500 kg/ha
  herbicidal effect rating, SAGPY: 3.0
Cyperus iria; Rate 0.0320 kg/ha
  herbicidal effect rating, CYPIR: 0.0
Cyperus iria; Rate 0.0620 kg/ha
  herbicidal effect rating, CYPIR: 2.0
Cyperus iria; Rate 0.1250 kg/ha
  herbicidal effect rating, CYPIR: 3.0
Cyperus iria; Rate 0.2500 kg/ha
  herbicidal effect rating, CYPIR: 7.0
[2]; Rate 0.0620 kg/ha
  herbicidal effect rating, CYPSE: 0.0
[2]; Rate 0.1250 kg/ha
  herbicidal effect rating, CYPSE: 0.0
[2]; Rate 0.2500 kg/ha
  herbicidal effect rating, CYPSE: 5.0
[3]; Rate 0.0320 kg/ha
  herbicidal effect rating, ECHORC: 0.0
[3]; Rate 0.0620 kg/ha
  herbicidal effect rating, ECHORC: 0.0
[3]; Rate 0.1250 kg/ha
  herbicidal effect rating, ECHORC: 3.0
[3]; Rate 0.2500 kg/ha
  herbicidal effect rating, ECHORC: 4.0
